Earlier results on seven compounds are cited in patent US10918627B2, “Convergent and enantioselective total synthesis of Communesin analogs” (Massachusetts Institute of Technology, priority 2016, dated 2021).

The subject of series [1] is third instar larvae of silkworms. The note with it: Hayashi 2004.
Series [2] has as its system bradycardia caused by astemidazole. The following applies: at different concentrations, Fan 2015.
The next series deals with cardiovascular vessels. The note with it: Fan 2015.
For series [3], the system named is mouse P-388 lymphocytic leukemia cells. The following applies: cultured mouse P-388 lymphocytic leukemia cells; Numata 1993.
For series [4] the following is noted: Fan 2015.
The test system of series [5] is human leukemia cell lines. The following applies: array of human leukemia cell lines; Jadulco 2004.
Series [6] relates to brine shrimp Artemia salina. The following applies: Jadulco 2004.

≈ marks a conversion by molar mass, not a printed value.

For the compound `CC(=O)N1CC[C@@]23c4ccccc4N[C@@H]4N(C)c5cccc6c5[C@@]42CCN([C@@H]6C=C(C)C)[C@@H]13` [Compound 1, (−)-Communesin F], the “insecticidal activity (comparative, in words)” value (shortened to “insecticidal activity”) in series [1] is “lower insecticidal activities”.
In the case of `CC(=O)N1CC[C@@]23c4ccccc4N[C@@H]4N(C)c5cccc6c5[C@@]42CCN([C@@H]13)[C@@H]6[C@H]1OC1(C)C` [Compound 2, Communesin A], the “insecticidal activity” value in series [1] is recorded as “lower insecticidal activities”. Also, the “mitigative effect on bradycardia” value in series [2] is reported as “significant mitigative effect”. The “promotion of the function of cardiovascular vessels” value in the series with cardiovascular vessels is reported as “moderately promote”. In addition, the ED50 cytotoxicity in series [3] is 3.5 µg/mL (≈ 7.67 µM). Besides, the vasculogenetic activity result in series [4] was “moderate vasculogenetic activity”.
As to `C/C=C/C=C/C(=O)N1CC[C@@]23c4ccccc4N[C@@H]4N(C)c5cccc6c5[C@@]42CCN([C@@H]13)[C@@H]6[C@H]1OC1(C)C` [Compound 4, Communesin B], the “insecticidal activity” value in series [1] is “most active”. The LD50 insecticidal in series [1] (oral administration) is on record as 5 μg/g of diet. Also, the “mitigative effect on bradycardia” value in series [2] is “significant mitigative effect”. In addition, in series [5], the anti-proliferative activity result was “moderate anti-proliferative activity”. Further, in series [6], the LD50 toxicity is 0.30 µg/mL. The ED50 cytotoxicity in series [3] was 0.45 µg/mL (≈ 0.885 µM).
Turning to `C/C=C/C=C/C(=O)N1CC[C@@]23c4ccccc4N[C@@H]4Nc5cccc6c5[C@@]42CCN([C@@H]13)[C@@H]6[C@H]1OC1(C)C` [Compound 5, communesin C], in series [5], the anti-proliferative activity result is reported as “moderate anti-proliferative activity”. The LD50 toxicity in series [6] is 1.96 µg/mL.
Consider `C/C=C/C=C/C(=O)N1CC[C@@]23c4ccccc4N[C@@H]4N(C=O)c5cccc6c5[C@@]42CCN([C@@H]13)[C@@H]6[C@H]1OC1(C)C` [Compound 6, communesin D], for which the “insecticidal activity” value in series [1] was “lower insecticidal activities”. Besides, in series [5], the anti-proliferative activity result was “moderate anti-proliferative activity”. Also, the LD50 toxicity in series [6] was 0.57 µg/mL.
Consider `CCC[C@H](O)CC(=O)N1CC[C@@]23c4ccccc4N[C@@H]4N(C)c5cccc6c5[C@@]42CCN([C@@H]13)[C@@H]6[C@H]1OC1(C)C` [Compound 9, communesin I], for which, in series [2], the “mitigative effect on bradycardia” value is “significant mitigative effect”. Moreover, the “promotion of the function of cardiovascular vessels” value in the series on cardiovascular vessels is given as “moderately promote”. For the same compound, the vasculogenetic activity entry in series [4] is listed as “moderate vasculogenetic activity”.
In the case of Communesin E [Compound 3], in series [1], the “insecticidal activity” value is “lower insecticidal activities”.
